Patent US11076594B2, “Pyrazolone compound or salt thereof, preparation method therefor, herbicide composition and use thereof” (QINGDAO KINGAGROOT CHEMICAL COMPOUNDS CO., LTD., priority 2015, dated 2021)

Assays:
Format in all cases: in vivo
[1] = system: Indian mallow; assay: weed control effect in post-emergence stage (Table 1); set-up: key: Level 10: completely dead; Level 9: above 95% growth control rate; Level 8: above 90% growth control rate; Level 7: above 80% growth control rate; Level 6: above 70% growth control rate; Level 5: above 60% growth control rate; Level 4: above 50% growth control rate; Level 3: above 20% growth control rate; Level 2: 5%-20% growth control rate; Level 1: below 5% growth control rate; settings: post-emergence spray at 4-5 leaf stage, 250 g/ha active ingredient with 450 kg/ha water, rated after 3 weeks in greenhouse
Outline: (§1)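 Weed and crop seeds sown in soil-filled pots under 0.5-2 cm soil, greenhouse-grown, then sprayed at 4-5 leaf stage (2-3 weeks after sowing) with compound in acetone/Tween 80/water. Fresh weight growth control rate assessed after 3 weeks in greenhouse.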

[2] = system: crab grass; assay: as above; set-up: key: Level 10: completely dead; Level 9: above 95% growth control rate; Level 8: above 90% growth control rate; Level 7: above 80% growth control rate; Level 6: above 70% growth control rate; Level 5: above 60% growth control rate; Level 4: above 50% growth control rate; Level 3: above 20% growth control rate; Level 2: 5%-20% growth control rate; Level 1: below 5% growth control rate; settings: post-emergence spray at 4-5 leaf stage, 250 g/ha active ingredient with 450 kg/ha water, rated after 3 weeks in greenhouse
Outline: as §1

[3] = system: echinochloa; assay: as above; set-up: key: Level 10: completely dead; Level 9: above 95% growth control rate; Level 8: above 90% growth control rate; Level 7: above 80% growth control rate; Level 6: above 70% growth control rate; Level 5: above 60% growth control rate; Level 4: above 50% growth control rate; Level 3: above 20% growth control rate; Level 2: 5%-20% growth control rate; Level 1: below 5% growth control rate; settings: post-emergence spray at 4-5 leaf stage, 250 g/ha active ingredient with 450 kg/ha water, rated after 3 weeks in greenhouse
Outline: as §1

[4] = system: foxtail; assay: as above; set-up: key: Level 10: completely dead; Level 9: above 95% growth control rate; Level 8: above 90% growth control rate; Level 7: above 80% growth control rate; Level 6: above 70% growth control rate; Level 5: above 60% growth control rate; Level 4: above 50% growth control rate; Level 3: above 20% growth control rate; Level 2: 5%-20% growth control rate; Level 1: below 5% growth control rate; settings: post-emergence spray at 4-5 leaf stage, 250 g/ha active ingredient with 450 kg/ha water, rated after 3 weeks in greenhouse
Outline: as §1

[5] = system: corn; assay: post-emergence stage experiment, crop (Table 1); settings: post-emergence spray at 4-5 leaf stage, 250 g/ha active ingredient with 450 kg/ha water, rated after 3 weeks in greenhouse
Outline: as §1

[6] = system: wheat; assay: post-emergence stage experiment, crop (Table 1); settings: post-emergence spray at 4-5 leaf stage, 250 g/ha active ingredient with 450 kg/ha water, rated after 3 weeks in greenhouse
Outline: as §1

[7] = system: rice; assay: post-emergence stage experiment, crop (Table 1); settings: post-emergence spray at 4-5 leaf stage, 250 g/ha active ingredient with 450 kg/ha water, rated after 3 weeks in greenhouse
Outline: as §1

[8] = system: wheat; assay: wheat field test, crop selectivity, greenhouse spray at 4 leaf stage; settings: 4 weeks after treatment
Outline: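 Read-out: fresh weight control rate, scored 4 weeks after a post-emergence spray. Treatment at 4 leaf stage (2-3 weeks after sowing); compound dissolved in acetone, with methyl oleate emulsion, diluted with water.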

[9] = system: bidens tripartite; assay: weed control effect evaluation in rice field; set-up: key: Level 10: completely dead; Level 9: above 95% growth control rate; Level 8: above 90% growth control rate; Level 7: above 80% growth control rate; Level 6: above 70% growth control rate; Level 5: above 60% growth control rate; Level 4: above 50% growth control rate; Level 3: above 20% growth control rate; Level 2: 5%-20% growth control rate; Level 1: below 5% growth control rate; settings: 125 g/ha ai; rice field pot; 14 days after treatment; resistant to pyrazosulfuron-ethyl
Source text: (§2) The activity level standard of harmful plant destruction (i.e. growth control rate) is as follows: Rice field soil was loaded into a 1/1,000,000 ha pot. The seeds of echinochloa, scirpus juncoides, bidens tripartite and sagittaria trifolia were sowed and gently covered with soil, then left to stand still in greenhouse in the state of 0.5-1 cm of water storage. The tuber of sagittaria trifolia was planted in the next day or 2 days later. It was kept at 3-4 cm of water storage thereafter. The weeds were treated by dripping the WP or SC water diluents prepared according to the common preparation method of the compounds of the present invention with pipette homogeneously to achieve specified effective amount when echinochloa, scirpus juncoides and bidens tripartite reached 0.5 leaf stage and sagittaria trifolia reached the time point of primary leaf stage. The fertility condition of echinochloa, scirpus juncoides, bidens tripartite and sagittaria trifolia 14 days after the treatment of the compound of the invention and the fertility condition of rice 21 days after the treatment of the compound of the invention respectively with the naked eye.

[10] = system: echinochloa; assay: weed control effect evaluation in rice field; set-up: key: Level 10: completely dead; Level 9: above 95% growth control rate; Level 8: above 90% growth control rate; Level 7: above 80% growth control rate; Level 6: above 70% growth control rate; Level 5: above 60% growth control rate; Level 4: above 50% growth control rate; Level 3: above 20% growth control rate; Level 2: 5%-20% growth control rate; Level 1: below 5% growth control rate; settings: 125 g/ha ai; rice field pot; 14 days after treatment; resistant to pyrazosulfuron-ethyl
Source text: as §2

[11] = system: sagittaria trifolia; assay: weed control effect evaluation in rice field; set-up: key: Level 10: completely dead; Level 9: above 95% growth control rate; Level 8: above 90% growth control rate; Level 7: above 80% growth control rate; Level 6: above 70% growth control rate; Level 5: above 60% growth control rate; Level 4: above 50% growth control rate; Level 3: above 20% growth control rate; Level 2: 5%-20% growth control rate; Level 1: below 5% growth control rate; settings: 125 g/ha ai; rice field pot; 14 days after treatment; resistant to pyrazosulfuron-ethyl
Source text: as §2

[12] = system: scirpus juncoides; assay: weed control effect evaluation in rice field; set-up: key: Level 10: completely dead; Level 9: above 95% growth control rate; Level 8: above 90% growth control rate; Level 7: above 80% growth control rate; Level 6: above 70% growth control rate; Level 5: above 60% growth control rate; Level 4: above 50% growth control rate; Level 3: above 20% growth control rate; Level 2: 5%-20% growth control rate; Level 1: below 5% growth control rate; settings: 125 g/ha ai; rice field pot; 14 days after treatment; resistant to pyrazosulfuron-ethyl
Source text: as §2

[13] = 2 g/mu, sprayed at 4 leaf stage
[14] = 4 g/mu, sprayed at 4 leaf stage
[15] = 8 g/mu, sprayed at 4 leaf stage
[16] = 16 g/mu, sprayed at 4 leaf stage
[17] = 32 g/mu, sprayed at 4 leaf stage
[18] = 250 g/ha of the active substance

| SMILES | weed control effect, Indian mallow (level) [1] | weed control effect, Crab grass (level) [2] | weed control effect, Echinochloa (level) [3] | weed control effect, Green foxtail (level) [4] | effect on crop, Corn (level) [5] | effect on crop, Wheat (level) [6] | effect on crop, Rice (level) [7] | Wheat (activity level, crop damage) [8, 13] | Wheat (activity level, crop damage) [8, 14] | Wheat (activity level, crop damage) [8, 15] | Wheat (activity level, crop damage) [8, 16] | Wheat (activity level, crop damage) [8, 17] | Bidens tripartite weed control effect (activity level) [9] | Echinochloa weed control effect (activity level) [10] | Sagittaria trifolia weed control effect (activity level) [11] | Scirpus juncoides weed control effect (activity level) [12] | Wheat (activity level, crop damage) [8, 18] |
| --- | --- | --- | --- | --- | --- | --- | --- | --- | --- | --- | --- | --- | --- | --- | --- | --- | --- |
| Cc1nn(C)cc1C(=O)Oc1c(C(=O)c2ccc(C(F)(F)F)c(N3CCCC3=O)c2Cl)c(C)nn1C [Compound 023] | 10 | 10 | 10 | 10 | 5 (Level 5: above 60% growth control rate) | 4 (Level 4: above 50% growth control rate) | 4 (Level 4: above 50% growth control rate) | 1 (Level 1: below 5% growth control rate) | 2 (Level 2: 5%-20% growth control rate) | 3 (Level 3: above 20% growth control rate) | 4 (Level 4: above 50% growth control rate) | 4 (Level 4: above 50% growth control rate) | 10 | 10 | 10 | 10 | – |
| Cc1nn(C)c(O)c1C(=O)c1ccc(C(F)(F)F)c(N2CCCCC2=O)c1Cl [Compound 035] | 9 (Level 9: above 95% growth control rate) | 8 (Level 8: above 90% growth control rate) | 7 (Level 7: above 80% growth control rate) | 10 | – | 0 | 6 (Level 6: above 70% growth control rate) | 0 | 0 | 0 | 0 | 0 | 9 (Level 9: above 95% growth control rate) | 8 (Level 8: above 90% growth control rate) | 9 (Level 9: above 95% growth control rate) | 10 | – |
| CCOc1c(C(=O)Oc2c(C(=O)c3ccc(C(F)(F)F)c(N4CCCCC4=O)c3Cl)c(C)nn2C)cnn1C [Compound 037] | 10 | 6 (Level 6: above 70% growth control rate) | 10 | 10 | 0 | 0 | 3 (Level 3: above 20% growth control rate) | – | – | – | – | – | 10 | 10 | 10 | 10 | 0 |
| CCOc1c(C(=O)Oc2c(C(=O)c3ccc(C(F)(F)F)c(-n4cccn4)c3Cl)c(C)nn2C)cnn1C [Compound 071] | 10 | 4 (Level 4: above 50% growth control rate) | 6 (Level 6: above 70% growth control rate) | 8 (Level 8: above 90% growth control rate) | 1 (Level 1: below 5% growth control rate) | 0 | 1 (Level 1: below 5% growth control rate) | – | – | – | – | – | 8 (Level 8: above 90% growth control rate) | 10 | 10 | 10 | 0 |
| CCOc1c(C(=O)Oc2c(C(=O)c3ccc(C(F)(F)F)c(-n4cc(C)cn4)c3Cl)cnn2C)cnn1C [Compound 081] | 10 | 7 (Level 7: above 80% growth control rate) | 10 | 8 (Level 8: above 90% growth control rate) | 2 (Level 2: 5%-20% growth control rate) | 0 | 3 (Level 3: above 20% growth control rate) | – | – | – | – | – | 10 | 10 | 10 | 10 | 0 |
| CCOc1c(C(=O)Oc2c(C(=O)c3ccc(C(F)(F)F)c(-n4cc(C)cn4)c3Cl)c(C3CC3)nn2C)cnn1C [Compound 092] | 10 | 3 (Level 3: above 20% growth control rate) | 6 (Level 6: above 70% growth control rate) | 8 (Level 8: above 90% growth control rate) | 2 (Level 2: 5%-20% growth control rate) | 1 (Level 1: below 5% growth control rate) | 2 (Level 2: 5%-20% growth control rate) | – | – | – | – | – | 9 (Level 9: above 95% growth control rate) | 10 | 10 | 10 | 1 (Level 1: below 5% growth control rate) |
| CCn1nc(C)c(C(=O)c2ccc(C(F)(F)F)c(-n3cccn3)c2Cl)c1OC(=O)c1cn(C)nc1C [Compound 129] | 3 (Level 3: above 20% growth control rate) | 0 | 10 | 10 | 3 (Level 3: above 20% growth control rate) | 1 (Level 1: below 5% growth control rate) | 6 (Level 6: above 70% growth control rate) | – | – | – | – | – | 10 | 10 | 10 | 10 | 1 (Level 1: below 5% growth control rate) |
